From patent publication US9856304B2, “Peptide and application thereof” (Saitama Medical University, priority 2013, dated 2018)

Columns and labels:
[1] = tested on: human iPS cells (200-9 cells, TIG3/KOSM cells, 253G1 cells); experiment: Differentiation induction of human iPS cells into pancreatic hormone-producing cells (1), immunostaining; type: cell-based; details: 3 nM betagenin in step (D2), vs DMSO control, FIG. 3
Description: As human iPS cells, used were 253G1 cells purchased from the cell bank at RIKEN, TIG3/KOSM cells provided by Dr. Mitani at Saitama Medical University, 200-9 cells, a clone in which a reporter gene is introduced into TIG3/KOSM cells. TIG3/KOSM cells were established at The National Institute of Advanced Industrial Science and Technology by introducing 4 factors (the OCT gene, the KLF gene, the SOX gene, the MYC gene) into TIG-3 cells using Sendai virus (Nishimura, K. et al., J. Biol. Chem., 286, pp. 4760-4771 (2011)).
These cells were cultured/maintained in an ES cell culture medium (DMEM/ham F12, 20% KSR, nonessential amino acid, 2 mM L-glutamine, 0.1 mM 2-mercaptoethanol, 5.2 mM NaOH) with added 4 ng/mL FGF-2 (Global Stem) and penicillin/streptomycin (Nacalai Tesque, Inc.) along with SNL76/7 cells (DS Pharma Biomedical) treated with mitomycin-C. CTK (0.25% trypsin, 1 mg/mL collagenase IV, 20% KSR, 1 mM CaCl2 in PBS) was used for cell detachment, and diluted at a ratio of 1:3 to 1:4 to perform passage culture.
Cells were detached with trypsin-EDTA 3 days before the start of differentiation induction, and plated at a cell density of 6.3×10^4 cells/cm2, and cultured for 1 day in an ES cell culture medium with added 10 μM Y-27632 (Wako), 4 ng/mL FGF-2 and penicillin/streptomycin along with STO cells treated with mitomycin-C. Subsequently, they were further cultured for 2 days in an ES cell culture medium with added 4 ng/mL FGF-2 and penicillin/streptomycin.
On the first day of the start of differentiation induction, the culture medium was replaced with a RPMI1640 culture medium (Nacalai Tesque, Inc.) with added 2% (v/v) FBS, 100 ng/mL activin A (SBI) and 3 μM CHIR99021 (Axon Medchem), and cultured for 1 day (Step (A2)).
Subsequently, the culture medium was replaced with a RPMI1640 culture medium with added 2% (v/v) FBS and 100 ng/mL activin A, and cultured for 2 days (Step (B2)). […]
Then, the proportion (%) of C-peptide positive cells or insulin positive cells was determined using an image analyzer CellInsight (Thermo Fisher Scientific).

[2] = tested on: MIN6 cells (pancreatic β cell line); experiment: EdU cell proliferation assay, growth promotion of pancreatic β cells (3), versus Peptides A, B, C; type: cell-based; details: betagenin 1 nM compared with Peptides A, C at 3 nM or 5 nM, FIG. 5
Experimental: MIN6 cells provided by Dr. Miyazaki at Osaka University were used as a pancreatic β cell line. MIN6 cells were maintained in a DMEM culture medium with added 15% (v/v) of FBS.
A DMSO solution was prepared so that the concentration of chemically synthesized betagenin was 97% of purity, as a pancreatic hormone-producing cell growth-promoting agent.
Further, for comparison, Peptides A, B, C consisting of the amino acid sequences set forth in SEQ ID Nos: 4 to 6, respectively, were prepared by chemical synthesis.
First, MIN6 cells were plated on a collagen-coated 8-well slide chamber (BD Falcon, Product Number 354630) at a cell density of 1×10^4 cells/well for confirming the growth promotion of pancreas β cells. After 24 hours, the culture medium was replaced with a DMEM culture medium with added 0.5% (v/v) of FBS, and then serum starvation was performed for 72 hours. Note that the culture medium was replaced with a fresh culture medium 48 hours after the start of serum starvation. […]
The incorporated EdU was visualized as red fluorescence using Alexa Flour™ 594, and observed with a fluorescence microscope (Carl Zeiss). […] Note that a red fluorescence part representing a region where EdU was taken up will be confirmed as a dark black part due to the operations of black and white processing and black and white inversion.

Substance: betagenin: chemically synthesized peptide of SEQ ID NO: 1, fragment of human TM4SF20 from Position 170 to Position 229 (WRASSFHFDSEENKHRLIHFSVFLGLLLVGILEVLFGLSQIVIGFLGCLCGVSKRRSQIV; Peptide Sequence betagenin; listed as Homo sapiens)
- proportion of C-peptide positive cells or insulin positive cells ([1]; 200-9 cells): increased
- proportion of C-peptide positive cells or insulin positive cells ([1]; 253G1 cells): increased
- proportion of C-peptide positive cells or insulin positive cells ([1]; TIG3/KOSM cells): increased
- EdU uptake in fluorescence microscope images (dark black parts) [2]: significantly darker black parts
